Patent US20210261636A1, “NEOANTIGENS EXPRESSED IN MULTIPLE MYELOMA AND THEIR USES” (Janssen Biotech, Inc., priority 2020, published 2021)

Columns and labels:
[1] = test system: CD4+ T cells; assay: Exogenous autologous healthy donor restimulation assay, TNFα and IFNγ production by CD4+ T cells; format: cell-based, human; design: Frequency (TNFα+ IFNγ+ CD4 T cells): unit not given here; settings: donor independent, peptide pool 10 μg/mL, healthy donors; for Fold change (CD4+) vs. DMSO: maximum CD4+ T-cell response (TNFα and IFNγ); for Frequency (TNFα+ IFNγ+ CD4 T cells): maximum CD4+ T-cell response
Description: (§1) Immunogenicity responses were measured by estimating TNFα IFNγ double positive cells in the CD4+ and/or CD8+ T-cell populations. A response is considered positive if TNFα IFNγ double positive fraction was greater than or equal to three-fold over unstimulated cells (DMSO negative control) with a minimum frequency >=0.01%. […]
(§2) Overlapping 15-mer peptides were designed to span each indicated neoantigen. Their ability to activate T cells was assessed using known methods, such as the assay defnied as exogenous autologous normal donor restimulation assay. The peptides were used as pools using TNFα and IFNγ production by CD8^+ and CD4^+ T cells as a readout. Maximum frequency of CD8^+TNFα^+IFNγ^+ and CD4^+TNFα^+IFNγ^+ T cells and maximum fold change over background for each pool of peptides were analyzed, which were calculated as the highest frequency of CD8^+ TNFα^+IFNγ^+ and CD4^+ TNFα^+IFNγ^+ T cells and resulting fold change across the normal donors evaluated for the peptide.
(§3) CD1c+Dendritic Cells (CD1c+DC) isolated from human healthy PBMCs were thawed using media (IMDM (Gibco) supplemented with glutamine, HEPES, 5% human serum (Sigma), and 1× Pen-Strep). DC cells were resuspended in media supplemented with IL-4 (Peprotech, 20 ng/mL) and GM-CSF (Gibco, 20 ng/mL), plated in 6 well microplates, and rested overnight at 37° C. and 5% CO2 incubator. The following day, DC cells were counted and plated in a 96 well round bottom microplate at a concentration of 30,000 viable cells per well. Lyophilized neoantigen peptide pools (15-mer peptides with 8-mer overlapping peptide sequences) were solubilized in 100% DMSO with a stock concentration of 20 mg/mL Neoantigen peptides pools were added to DCs for a final concentration of 10 μg/mL and rested for 2 hours at 37° C. and 5% CO2 incubator. CEF Peptide Pool “Plus” (Cellular Technologies, Ltd.) was utilized as a positive control (each viral peptide at a final concentration of 4 ug/ml) and DMSO at the same final concentration (0.05%) as the experimental peptides was utilized as a negative control. After 2 hours, DC cells were irradiated with 50 gray of ionizing radiation. Autologous CD3+ Pan-T cells isolated from human normal PBMCs were thawed using media. Following irradiation, autologous Pan-T cells were added to the irradiated DCs at 300,000 viable cells per well. Human IL-15 (Peprotech) was added to all wells at final concentration of 10 ng/ml. Plates were incubated at 37° C. and 5% CO2 incubator for a total of 12 days. Media was refreshed every 2-3 days with IL-15 (R&D System, 10 ng/mL final concentration) and IL-2 (R&D systems, 10 IU/mL final concentration).
(§4) On Day 11, cells were re-stimulated with identical experimental peptide pools or controls, at same concentration as peptide stimulation on Day 1. Protein Inhibitor Cocktail (eBioscience) was added to every well and plate was incubated overnight for 14-16 hours at 37° C. and 5% CO2 incubator. On Day 12, cells were stained for surface and intracellular flow cytometry analysis. The cells were washed with PBS and stained with Live/Dead Fixable Aqua Dead Cell stain (Thermo-Fisher). Following the live/dead stain, cells were blocked using Biotin-Free Fc Receptor Blocker (Accurate Chemical & Scientific Corp). Extracellular cellular flow panel (1 μL/antibody per well in 50 μL) consisted of CD3 PerCP-Cy5.5 (Biolegend), CD4 BV421 (Biolegend), and CD8 APC-Cy7 (Biolegend). After extracellular staining, cells were fixed and permeabilized using Foxp3/Transcription Factor Staining Buffer Set (eBioscience) and stained for intracellular proteins (1:50 dilution) using TNFα FITC (R&D Systems) and IFNγ BV785 (Biolegend). Cells were washed and resuspended in stain buffer, analyzed, and recorded in a BD Celesta flow cytometer.
(§5) Flow cytometry analysis was conducted on FlowJo v10.6 software. Cells were gated on live, singlet, CD3+, CD4+ and CD8+ T cells. The CD8+ and CD4+ T cells were analyzed for TNFα and IFNγ expression. […]

[2] = test system: CD8+ T cells; assay: Exogenous autologous healthy donor restimulation assay, TNFα and IFNγ production by CD8+ T cells; format: cell-based, human; design: Frequency (TNFα+ IFNγ+ CD8 T cells): unit not given here; settings: for Fold change (CD8+) vs. DMSO: maximum CD8+ T-cell response (TNFα and IFNγ); for Fold change (CD8+) vs. DMSO / Frequency (TNFα+ IFNγ+ CD8 T cells): donor independent, peptide pool 10 μg/mL, healthy donors; for Frequency (TNFα+ IFNγ+ CD8 T cells): maximum CD8+ T-cell response; for Immunogenic (yes/no): positive if CD8+ and/or CD4+ double positive TNFα/IFNγ frequency >=3-fold over DMSO and at least 0.01%
Description: as §1, §2, §3, §4, §5

Row | Substance | Fold change (CD4+) vs. DMSO [1] | Frequency (TNFα+ IFNγ+ CD4 T cells) [1] | Fold change (CD8+) vs. DMSO [2] | Frequency (TNFα+ IFNγ+ CD8 T cells) [2] | Immunogenic (yes/no) [2]
1 | AAGVVTEIEAAVKA [FUS17, gene fusion HBS1L-> ALDH8A1] | 2.11 | 0.012 | 5.31 | 0.13 | Yes
2 | ACGACGAGFFIKQKCIEQRESRSLS [FUS22, gene fusion IGLL5-> COMMD3-BMI1, BMI1] | 0.86 | 0.006 | 89.07 | 0.11 | Yes
3 | AFIYHAFVGSTKTAWRTTL [FUS13, gene fusion KCNQ5-> KCNQ5-IT1] | 8.79 | 0.057 | 3.96 | 0.033 | Yes
4 | AGDVLFIPGISLKVHKVQHSKVINICN [AS55, alternative splicing, TYW5] | 27.71 | 0.042 | 96.05 | 0.17 | Yes
5 | AKFWSDISINRAPSFG [AS94, alternative splicing, TTLL7] | 62.53 | 0.63 | 97.14 | 2.72 | Yes
6 | ARHLLTLGTCGSTWP [FUS26, gene fusion P2RY6-> ARHGEF17] | 2.46 | 0.026 | 7.07 | 0.1 | Yes
7 | ARWFTREQGSEN [FUS12, gene fusion NUDT12-> LINC02115] | 2.77 | 0.027 | 24.68 | 0.58 | Yes
8 | CEIMPLQSYILL [AS37, alternative splicing, FAM13A] | 576.132 | 0.21 | 17.37 | 0.32 | Yes
9 | CKVCQNCKNPKMARAS [AS23, alternative splicing, KMT2C] | 18 | 0.063 | 3.05 | 0.065 | Yes
10 | CRERGLQEAEGDVAAL [FUS40, gene fusion KLF2-> TPM4] | 1.26 | 0.024 | 18.3 | 0.43 | Yes
11 | DLFDEFDNSRLVSRSWFFFYLRNKWNLALGF [AS24, alternative splicing, ST3GAL6] | 613.88 | 3.14 | 1300 | 0.13 | Yes
12 | DLNQDGYNGNLNQSVEVIYVSSPLHKGDHACFKVFSMVCVGAVIITDF [AS64, alternative splicing, ITGA8] | 376.11 | 0.57 | 6.83 | 0.8 | Yes
13 | DMEVFLKEASTNQHNTLIHLTLTFST [AS73, alternative splicing, SMC5] | 72.58 | 0.11 | 3 | 0.02 | Yes
14 | DPTTKRSRLTPKLHFLVERNPRWSQEQRKYL [AS92, alternative splicing, MSI2] | 31.67 | 0.048 | 41.24 | 0.073 | Yes
15 | DVAVICSGRRSARDP [FUS4, gene fusion CD5L-> FCRL1] | 7.13 | 0.029 | 3.1 | 0.04 | No
16 | DVAVICSGVPVADVS [FUS5, gene fusion CD5L-> FCRL1] | 6.97 | 0.021 | 4.59 | 0.079 | Yes
17 | EGTPFEDGKSYSLCFL [AS78, alternative splicing, UBE2B] | 3.14 | 0.024 | 29.32 | 0.52 | Yes
18 | ERSHSKKKDGLVRNDGPGFPPMFSTSENTNLD [AS54, alternative splicing, SETBP1] | 90.535 | 0.033 | 0.73 | 0.008 | Yes
19 | FALMASLGIPQTMAA [FUS56, gene fusion ZNF772-> VN1R1] | 115.03 | 0.75 | 2.73 | 0.007 | Yes
20 | FGTSHMMVRHF [AS33, alternative splicing, CFAP54] | 2.78 | 0.009 | 47.27 | 0.49 | Yes
21 | FLQKHGNENTVLMLETLSEIRYGYVSCVCCPLLSPYGRCLN [AS26, alternative splicing, AGFG1] | 5.7 | 0.097 | 84.36 | 0.75 | Yes
22 | FSMRPAFGETALGCKKW [AS19, alternative splicing, GABRR2] | 23.16 | 0.12 | 140 | 0.031 | Yes
23 | FSQNMNTKMIRGTERKQQYYGLQILE [AS134, alternative splicing, XPO1] | 1.429 | 0.02 | 4.51 | 0.091 | Yes
24 | FU524 (SGLEAIQRGYETFYSE) | 3.13 | 0.014 | 259.11 | 0.48 | Yes
25 | GEKILFIRVKFYFSLILFLWEDSEFELGEI [AS9, alternative splicing, GAS2] | 20.874 | 0.099 | 358.4 | 1.99 | Yes
